Test results: patent US11673916B2, “Neuroprotective peptides and methods of their use” (University of Pittsburgh—Of the Commonwealth System of …, priority 2020, dated 2023)

What was measured:
[1] = test system: MCAo mouse model of ischemic stroke; assay: Transient middle cerebral artery occlusion (MCAo), infarct ratio by TTC staining; assay type: in vivo; settings: 50 minutes MCAo, IP peptide at one and six hours after reperfusion, 24 h after reperfusion, mean±SEM (FIG. 6D)
Description: Mice were anesthetized with isoflurane and the common carotid artery was exposed. A single-use silicon-coated suture (MCAo suture #602256PK10; Doccol Corporation, Sharron, Mass.) was advanced 8-9 mm into the internal carotid artery, occluding the MCA. The suture was secured with 6-0 silk ligatures for 50 minutes, then removed. Twenty-four hours following cerebral reperfusion, mice were sacrificed and four 2-mm coronal brain sections were obtained from each animal. Sections were stained with 0.05% 2,3,5-triphenyltetrazolium chloride (TTC) in PBS for 30 minutes at room temperature. Brain sections were digitally scanned following staining and a blinded experimenter measured infarct ratios (infarct area/total section area) using NIH ImageJ software. Visual representation of this protocol is in FIG. 6B.
The neuroprotective efficacy of TAT-DP-2 in vivo was next tested. […]
Twenty-four hours following cerebral reperfusion after MCAo, total infarct ratios were analyzed (FIG. 6B) in tetrazolium chloride-stained brain sections (FIGS. 6B and 6C). […] A different, blinded observer then analyzed each animal and assigned an objective murine neurological score (MNS; Table 3) to each mouse over a 42-day period. As the MNS is based solely on characteristic motor deficits developed following left MCAo, all animals initially scored zero on the scale.

cortical neurons = assay: Cell toxicity assay (LDH release) after excitotoxic TBOA treatment; assay type: cell-based, rat; settings: 3 μM peptide, TBOA 60 μM, LDH 24 h after initial TBOA treatment, mean±SEM (FIG. 4D)
Description: Cortical neurons were pre-treated with vehicle, TAT-DP-2 (3 μM), or TAT-Sc-2 (3 μM) for 2 hours in HEPES-buffered minimal essential media with 0.01% bovine serum albumin (MHB). Next, cells with the same peptide concentrations along with either vehicle or 60 μM DL-threo-β-benzyloxyaspartic acid (TBOA) for 6 hours. Each well was washed two times with either 0.5 mL of vehicle or 60 μM TBOA and neurons were incubated overnight. Twenty-four hours following initial TBOA treatment, media was collected for lactate dehydrogenase assays (Sigma Aldrich, St. Louis, Mo.). Relative toxicity was quantified by calculating the ratio of LDH concentration in TBOA-treated over non-TBOA-treated wells. […]
With evidence that TAT-DP-2-mediated declustering prevents enhancement of pro-apoptotic Kv2.1 potassium currents following injury, the neuroprotective actions of TAT-DP-2 in cortical neurons in vitro were next tested. […] Neurotoxicity was assessed by the release of lactate dehydrogenase (LDH) into the culture medium, as described previously (Aras, et al., Curr Protoc Neurosci. 44: 7.18.1-7.18.15, 2008). […] Based on these findings, the potential neuroprotective actions of TAT-DP-2 were evaluated in an in vivo model of ischemia-reperfusion injury, where a substantial contribution of Kv2.1-enabled neuronal cell death has been previously observed (Yeh et al., J Neurosci. 37: 5648-5658, 2017).

Row | Sequence | mean total infarct ratio [1] | mean relative toxicity ([LDH]TBOA/[LDH]Veh) (cortical neurons)
1 | YGRKKRRQRRRDFSSIST [TAT-Sc-2, TAT-linked scramble control peptide] | 0.121±0.009 | 1.57±0.15
2 | YGRKKRRQRRRSIDSFTS [TAT-DP-2, TAT-linked declustering peptide 2] | 0.071±0.020 | 1.01±0.15
